Laboratory results from patent US20100267561A1, “HERBICIDAL PYRIDAZINONE DERIVATIVES” (priority 2007, published 2010).

Columns and labels:
Experiment in all cases: Test C pre-/postemergence plant response
Format in all cases: in vivo
Conditions in all cases: Preemergence
[1] = tested on: winter wheat (Triticum aestivum)
Source text: (§1) Seeds of plant species selected from annual bluegrass (Poa annua), blackgrass (Alopecurus myosuroides), canola (Brassica rapa), downy bromegrass (Bromus tectorum), green foxtail (Setaria viridis), Italian ryegrass (Lolium multiflorum), canarygrass (Phalaris minor), pigweed (Amaranthus retroflexus), spring barley (Hordeum vulgare), spring wheat (Triticum aestivum), wild mustard (Sinapis arvensis), wild oat (Avena fatua), windgrass (Apera spica-venti), winter barley (Hordeum vulgare), and winter wheat (Triticum aestivum) were planted and treated preemergence with test chemicals formulated in a non-phytotoxic solvent mixture which included a surfactant. At the same time, plants selected from these crop and weed species were treated with postemergence applications of some of the test chemicals formulated in the same manner. Plants ranged in height from 2 to 18 cm (1- to 4-leaf stage) for postemergence treatments.
(§2) Treated plants and controls were maintained in a controlled growth environment for 15 to 25 days after which time all species were compared to controls and visually evaluated. Plant response ratings, summarized in Table C, are based on a scale of 0 to 100 where 0 is no effect and 100 is complete control. A dash (-) response means no test result.

[2] = tested on: wild mustard (Sinapis arvensis)
Source text: as §1, §2

[3] = tested on: windgrass (Apera spica-venti)
Source text: as §1, §2

[4] = tested on: green foxtail (Setaria viridis)
Source text: as §1, §2

[5] = tested on: pigweed (Amaranthus retroflexus)
Source text: as §1, §2

[6] = tested on: canarygrass (Phalaris minor)
Source text: as §1, §2

[7] = tested on: Italian ryegrass (Lolium multiflorum)
Source text: as §1, §2

[8] = tested on: spring wheat (Triticum aestivum)
Source text: as §1, §2

[9] = tested on: annual bluegrass (Poa annua)
Source text: as §1, §2

[10] = tested on: winter barley (Hordeum vulgare)
Source text: as §1, §2

[11] = tested on: downy bromegrass (Bromus tectorum)
Source text: as §1, §2

wild oat (Avena fatua) = tested on: wild oat (Avena fatua)
Source text: as §1, §2

[12] = tested on: blackgrass (Alopecurus myosuroides)
Source text: as §1, §2

[13] = 8 g ai/ha, scale 0 to 100 (0 no effect, 100 complete control)
[14] = 16 g ai/ha, scale 0 to 100 (0 no effect, 100 complete control)
[15] = 31 g ai/ha, scale 0 to 100 (0 no effect, 100 complete control)
[16] = 62 g ai/ha, scale 0 to 100, 0 no effect, 100 complete control

With `Cc1cc(-c2ccc(Cl)cc2)nn1-c1c(OS(=O)(=O)c2ccccc2[N+](=O)[O-])cnn(C)c1=O` [Compound 51] as the compound, how does the “Plant response rating, Wheat, Winter” value [1, 13] read?
Its value is 0.

What about the “Plant response rating, Wheat, Winter” value [1, 14] of the same compound?
The value was 0.

What about the “Plant response rating, Wheat, Winter” value [1, 15] of the same compound?
Its value is 0.

What about the “Plant response rating, Wheat, Winter” value [1, 16] of the same compound?
Its value is 40.

What about the “Plant response rating, Mustard, Wild” value [2, 14] of the same compound?
Its value is 0.

What about the “Plant response rating, Mustard, Wild” value [2, 15] of the same compound?
Its value is 0.

What about the “Plant response rating, Mustard, Wild” value [2, 16] of the same compound?
The value was 0.

What about the “Plant response rating, Windgrass” value [3, 13] of the same compound?
The value was 0.

And the “Plant response rating, Windgrass” value [3, 14]?
The value was 10.

And the “Plant response rating, Windgrass” value [3, 15]?
The value was 20.

What about the “Plant response rating, Windgrass” value [3, 16] of the same compound?
The value was 80.

What about the “Plant response rating, Foxtail, Green” value [4, 13] of the same compound?
The value was 10.

What about the “Plant response rating, Foxtail, Green” value [4, 14] of the same compound?
Its value is 80.

And the “Plant response rating, Foxtail, Green” value [4, 15]?
The value was 100.

And the “Plant response rating, Foxtail, Green” value [4, 16]?
Its value is 100.

What about the “Plant response rating, Pigweed” value [5, 13] of the same compound?
The value was 0.

And the “Plant response rating, Pigweed” value [5, 14]?
The value was 0.

And the “Plant response rating, Pigweed” value [5, 15]?
The value was 0.

What about the “Plant response rating, Pigweed” value [5, 16] of the same compound?
Its value is 0.

What about the “Plant response rating, Canarygrass” value [6, 13] of the same compound?
The value was 0.

What about the “Plant response rating, Canarygrass” value [6, 14] of the same compound?
Its value is 0.

And the “Plant response rating, Canarygrass” value [6, 15]?
Its value is 80.

And the “Plant response rating, Canarygrass” value [6, 16]?
Its value is 90.

And the “Plant response rating, Ryegrass, Italian” value [7, 13]?
The value was 0.

What about the “Plant response rating, Ryegrass, Italian” value [7, 14] of the same compound?
The value was 90.

And the “Plant response rating, Ryegrass, Italian” value [7, 16]?
Its value is 90.

And the “Plant response rating, Wheat, Spring” value [8, 13]?
Its value is 0.

What about the “Plant response rating, Wheat, Spring” value [8, 14] of the same compound?
Its value is 0.

And the “Plant response rating, Wheat, Spring” value [8, 15]?
Its value is 60.

And the “Plant response rating, Wheat, Spring” value [8, 16]?
Its value is 75.

What about the “Plant response rating, Bluegrass” value [9, 13] of the same compound?
The value was 0.

And the “Plant response rating, Bluegrass” value [9, 14]?
The value was 0.

And the “Plant response rating, Bluegrass” value [9, 15]?
Its value is 0.

What about the “Plant response rating, Bluegrass” value [9, 16] of the same compound?
The value was 10.

What about the “Plant response rating, Barley, Winter” value [10, 13] of the same compound?
Its value is 0.

What about the “Plant response rating, Barley, Winter” value [10, 14] of the same compound?
Its value is 0.

And the “Plant response rating, Barley, Winter” value [10, 15]?
The value was 0.

And the “Plant response rating, Barley, Winter” value [10, 16]?
Its value is 40.

And the “Plant response rating, Bromegrass, Downy” value [11, 13]?
The value was 0.

And the “Plant response rating, Bromegrass, Downy” value [11, 14]?
Its value is 0.

And the “Plant response rating, Bromegrass, Downy” value [11, 15]?
Its value is 0.

What about the “Plant response rating, Bromegrass, Downy” value [11, 16] of the same compound?
The value was 50.

What about the “Plant response rating, Oat, Wild” value (wild oat (Avena fatua); [13]) of the same compound?
The value was 0.

And the “Plant response rating, Oat, Wild” value (wild oat (Avena fatua); [14])?
The value was 0.

What about the “Plant response rating, Oat, Wild” value (wild oat (Avena fatua); [15]) of the same compound?
Its value is 35.

And the “Plant response rating, Oat, Wild” value (wild oat (Avena fatua); [16])?
The value was 50.

What about the “Plant response rating, Blackgrass” value [12, 13] of the same compound?
The value was 0.

What about the “Plant response rating, Blackgrass” value [12, 14] of the same compound?
Its value is 35.

What about the “Plant response rating, Blackgrass” value [12, 15] of the same compound?
The value was 100.

What about the “Plant response rating, Blackgrass” value [12, 16] of the same compound?
The value was 100.

What does the source list for `C#CCOC(=O)Oc1cnn(C)c(=O)c1-n1nc(-c2ccc(Cl)cc2)cc1C` [Compound 58]?
Plant response rating, Wheat, Winter [1, 13]: 0; Plant response rating, Wheat, Winter [1, 14]: 0; Plant response rating, Wheat, Winter [1, 15]: 60; Plant response rating, Wheat, Winter [1, 16]: 80; Plant response rating, Mustard, Wild [2, 13]: 0; Plant response rating, Mustard, Wild [2, 14]: 0; Plant response rating, Mustard, Wild [2, 16]: 0; Plant response rating, Windgrass [3, 13]: 0; Plant response rating, Windgrass [3, 14]: 20; Plant response rating, Windgrass [3, 15]: 50; Plant response rating, Windgrass [3, 16]: 70; Plant response rating, Foxtail, Green [4, 13]: 35; Plant response rating, Foxtail, Green [4, 14]: 98; Plant response rating, Foxtail, Green [4, 15]: 100; Plant response rating, Foxtail, Green [4, 16]: 100; Plant response rating, Pigweed [5, 13]: 0; Plant response rating, Pigweed [5, 16]: 0; Plant response rating, Canarygrass [6, 13]: 0; Plant response rating, Canarygrass [6, 14]: 60; Plant response rating, Canarygrass [6, 15]: 90; Plant response rating, Canarygrass [6, 16]: 95; Plant response rating, Ryegrass, Italian [7, 13]: 25; Plant response rating, Ryegrass, Italian [7, 14]: 65; Plant response rating, Ryegrass, Italian [7, 15]: 100; Plant response rating, Ryegrass, Italian [7, 16]: 100; Plant response rating, Wheat, Spring [8, 13]: 0; Plant response rating, Wheat, Spring [8, 14]: 50; Plant response rating, Wheat, Spring [8, 15]: 60; Plant response rating, Wheat, Spring [8, 16]: 90; Plant response rating, Bluegrass [9, 13]: 0; Plant response rating, Bluegrass [9, 14]: 0; Plant response rating, Bluegrass [9, 15]: 0; Plant response rating, Bluegrass [9, 16]: 0; Plant response rating, Barley, Winter [10, 13]: 0; Plant response rating, Barley, Winter [10, 14]: 0; Plant response rating, Barley, Winter [10, 15]: 0; Plant response rating, Barley, Winter [10, 16]: 75; Plant response rating, Bromegrass, Downy [11, 13]: 0; Plant response rating, Bromegrass, Downy [11, 14]: 15; Plant response rating, Bromegrass, Downy [11, 15]: 70; Plant response rating, Bromegrass, Downy [11, 16]: 75; Plant response rating, Oat, Wild (wild oat (Avena fatua); [13]): 0; Plant response rating, Oat, Wild (wild oat (Avena fatua); [14]): 50; Plant response rating, Oat, Wild (wild oat (Avena fatua); [15]): 65; Plant response rating, Oat, Wild (wild oat (Avena fatua); [16]): 75; Plant response rating, Blackgrass [12, 13]: 0; Plant response rating, Blackgrass [12, 14]: 65; Plant response rating, Blackgrass [12, 15]: 98; Plant response rating, Blackgrass [12, 16]: 100
